The subject of this assay is JR251 or RBL cells. As to the kind of experiment: Store-operated calcium entry, either JR251 or RBL cells, or both. The format is cell-based. The essentials:
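Orai1/STIM1 stable cells: fluo-4-AM loaded, compound 30 min at RT in Ca2+-free HBSS, then CaCl2 added; IC50 from Peak-Basal FLIPR fluorescence. RBL-2H3 cells: compound 5 min, then thapsigargin (5.5× stock, 5.5 uM) 25 min, then calcium added; IC50 from Upslope (signal 7 s after calcium minus baseline).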

As to `O=C(Nc1scc(-c2ccc(Cl)cc2)c1C(=O)O)c1ccc2scnc2c1` [2-(benzo[d]thiazole-5-carboxamido)-4-(4-chlorophenyl)thiophene-3-carboxylic acid], the IC50 (in general, the midpoint of a concentration-inhibition curve) was below 10 µM.

With `O=C(Nc1scc(-c2ccc(Cl)cc2)c1C(=O)O)c1ccc2ncsc2c1` [2-(benzo[d]thiazole-6-carboxamido)-4-(4-chlorophenyl)thiophene-3-carboxylic acid], the IC50 was below 10 µM.

Turning to `O=C(Nc1scc(-c2ccc(Cl)cc2)c1C(=O)O)c1nnc2ccccc2n1` [2-(benzo[e][1,2,4]triazine-3-carboxamido)-4-(4-chlorophenyl)thiophene-3-carboxylic acid], the half-inhibitory concentration (IC50) is below 10 µM.

`COc1ccc(-c2csc(NC(=O)c3cc4ccccc4o3)c2C(=O)O)c(F)c1F` [2-(benzofuran-2-carboxamido)-4-(2,3-difluoro-4-methoxyphenyl)thiophene-3-carboxylic acid]: the IC50 was below 10 µM.

For the molecule `Cc1ccc(-c2csc(NC(=O)c3cc4ccccc4o3)c2C(=O)O)c(F)c1F` [2-(benzofuran-2-carboxamido)-4-(2,3-difluoro-4-methylphenyl)thiophene-3-carboxylic acid], the IC50 is below 10 µM.

As for `O=C(Nc1scc(-c2ccc3c(c2)CCC3)c1C(=O)O)c1cc2ccccc2o1` [2-(benzofuran-2-carboxamido)-4-(2,3-dihydro-1H-inden-5-yl)thiophene-3-carboxylic acid], the IC50 is below 10 µM.

`O=C(Nc1scc(-c2c(F)cc(F)cc2F)c1C(=O)O)c1cc2ccccc2o1` [2-(benzofuran-2-carboxamido)-4-(2,4,6-trifluorophenyl)thiophene-3-carboxylic acid]: the IC50 is below 10 µM.

For `N#Cc1c(Cl)ccc(-c2csc(NC(=O)c3cc4ccccc4o3)c2C(=O)O)c1Cl` [2-(benzofuran-2-carboxamido)-4-(2,4-dichloro-3-cyanophenyl)thiophene-3-carboxylic acid], the IC50 is below 10 µM.

In the case of `COc1c(Cl)ccc(-c2csc(NC(=O)c3cc4ccccc4o3)c2C(=O)O)c1Cl` [2-(benzofuran-2-carboxamido)-4-(2,4-dichloro-3-methoxyphenyl)thiophene-3-carboxylic acid], the IC50 is below 10 µM.

Regarding `O=C(Nc1scc(-c2ccc(F)c(O)c2F)c1C(=O)O)c1cc2ccccc2o1` [2-(benzofuran-2-carboxamido)-4-(2,4-difluoro-3-hydroxyphenyl)thiophene-3-carboxylic acid], the IC50 was below 10 µM.

`COc1c(F)ccc(-c2csc(NC(=O)c3cc4ccccc4o3)c2C(=O)O)c1F` [2-(benzofuran-2-carboxamido)-4-(2,4-difluoro-3-methoxyphenyl)thiophene-3-carboxylic acid]: the IC50 is below 10 µM.

In the case of `COc1cc(F)c(-c2csc(NC(=O)c3cc4ccccc4o3)c2C(=O)O)cc1F` [2-(benzofuran-2-carboxamido)-4-(2,5-difluoro-4-methoxyphenyl)thiophene-3-carboxylic acid], the IC50 is below 10 µM.

With `COc1cc(F)c(-c2csc(NC(=O)c3cc4ccccc4o3)c2C(=O)O)c(F)c1` [2-(benzofuran-2-carboxamido)-4-(2,6-difluoro-4-methoxyphenyl)thiophene-3-carboxylic acid], the IC50 is below 10 µM.

As for `O=C(Nc1scc(-c2cc(F)c(F)c(F)c2)c1C(=O)O)c1cc2ccccc2o1` [2-(benzofuran-2-carboxamido)-4-(3,4,5-trifluorophenyl)thiophene-3-carboxylic acid], the IC50 was below 10 µM.

For the molecule `Cc1c(-c2csc(NC(=O)c3cc4ccccc4o3)c2C(=O)O)ccc(Cl)c1Cl` [2-(benzofuran-2-carboxamido)-4-(3,4-dichloro-2-methylphenyl)thiophene-3-carboxylic acid], the IC50 was below 10 µM.

With `O=C(Nc1scc(-c2ccc(Br)c(F)c2F)c1C(=O)O)c1cc2ccccc2o1` [2-(benzofuran-2-carboxamido)-4-(4-bromo-2,3-difluorophenyl)thiophene-3-carboxylic acid], the IC50 was below 10 µM.

Turning to `Cc1cc(-c2csc(NC(=O)c3cc4ccccc4o3)c2C(=O)O)c(C)cc1Br` [2-(benzofuran-2-carboxamido)-4-(4-bromo-2,5-dimethylphenyl)thiophene-3-carboxylic acid], the IC50 is below 10 µM.

Regarding `O=C(Nc1scc(-c2ccc(Cl)c(F)c2F)c1C(=O)O)c1cc2ccccc2o1` [2-(benzofuran-2-carboxamido)-4-(4-chloro-2,3-difluorophenyl)thiophene-3-carboxylic acid], the IC50 is below 10 µM.

For the molecule `O=C(Nc1scc(-c2cc(F)c(Cl)cc2F)c1C(=O)O)c1cc2ccccc2o1` [2-(benzofuran-2-carboxamido)-4-(4-chloro-2,5-difluorophenyl)thiophene-3-carboxylic acid], the IC50 is below 10 µM.

With `Cc1cc(-c2csc(NC(=O)c3cc4ccccc4o3)c2C(=O)O)c(F)cc1Cl` [2-(benzofuran-2-carboxamido)-4-(4-chloro-2-fluoro-5-methylphenyl)thiophene-3-carboxylic acid], the IC50 was below 10 µM.

Take `O=C(Nc1scc(-c2cc(F)c(Cl)c(F)c2)c1C(=O)O)c1cc2ccccc2o1` [2-(benzofuran-2-carboxamido)-4-(4-chloro-3,5-difluorophenyl)thiophene-3-carboxylic acid]: the IC50 is below 10 µM.

As to `O=C(Nc1scc(-c2ccc(C3CC3)c(F)c2F)c1C(=O)O)c1cc2ccccc2o1` [2-(benzofuran-2-carboxamido)-4-(4-cyclopropyl-2,3-difluorophenyl)thiophene-3-carboxylic acid], the IC50 is below 10 µM.

In the case of `Cc1c(F)ccc(-c2csc(NC(=O)c3cc4ccccc4o3)c2C(=O)O)c1C` [2-(benzofuran-2-carboxamido)-4-(4-fluoro-2,3-dimethylphenyl)thiophene-3-carboxylic acid], the IC50 was below 10 µM.

Consider `Cc1cc(-c2csc(NC(=O)c3cc4ccccc4o3)c2C(=O)O)c(C)cc1F` [2-(benzofuran-2-carboxamido)-4-(4-fluoro-2,5-dimethylphenyl)thiophene-3-carboxylic acid], for which the IC50 is below 10 µM.

Take `COc1cc(C)c(-c2csc(NC(=O)c3cc4ccccc4o3)c2C(=O)O)cc1C` [2-(benzofuran-2-carboxamido)-4-(4-methoxy-2,5-dimethylphenyl)thiophene-3-carboxylic acid]: the IC50 is below 10 µM.

For `COc1cc(C)c(-c2csc(NC(=O)c3cc4ccccc4o3)c2C(=O)O)c(C)c1` [2-(benzofuran-2-carboxamido)-4-(4-methoxy-2,6-dimethylphenyl)thiophene-3-carboxylic acid], the IC50 is below 10 µM.

`COc1cc(Br)cc2cc(-c3csc(NC(=O)c4cc5ccccc5o4)c3C(=O)O)oc12` [2-(benzofuran-2-carboxamido)-4-(5-bromo-7-methoxybenzofuran-2-yl)thiophene-3-carboxylic acid]: the IC50 was below 10 µM.

For `O=C(Nc1scc(-c2cc3cc(Br)ccc3o2)c1C(=O)O)c1cc2ccccc2o1` [2-(benzofuran-2-carboxamido)-4-(5-bromobenzofuran-2-yl)thiophene-3-carboxylic acid], the IC50 was below 10 µM.

`Cc1cc(F)c(-c2csc(NC(=O)c3cc4ccccc4o3)c2C(=O)O)cc1Cl` [2-(benzofuran-2-carboxamido)-4-(5-chloro-2-fluoro-4-methylphenyl)thiophene-3-carboxylic acid]: the IC50 is below 10 µM.

Regarding `O=C(Nc1scc(-c2cc3cc(Cl)ccc3o2)c1C(=O)O)c1cc2ccccc2o1` [2-(benzofuran-2-carboxamido)-4-(5-chlorobenzofuran-2-yl)thiophene-3-carboxylic acid], the IC50 is below 10 µM.

As to `O=C(Nc1scc(-c2cc3cc(O)ccc3o2)c1C(=O)O)c1cc2ccccc2o1` [2-(benzofuran-2-carboxamido)-4-(5-hydroxybenzofuran-2-yl)thiophene-3-carboxylic acid], the IC50 was below 10 µM.

Consider `COc1ccc2oc(-c3csc(NC(=O)c4cc5ccccc5o4)c3C(=O)O)cc2c1` [2-(benzofuran-2-carboxamido)-4-(5-methoxybenzofuran-2-yl)thiophene-3-carboxylic acid], for which the IC50 was below 10 µM.

For the molecule `O=C(Nc1scc(-c2cc3ccc(Br)cc3o2)c1C(=O)O)c1cc2ccccc2o1` [2-(benzofuran-2-carboxamido)-4-(6-bromobenzofuran-2-yl)thiophene-3-carboxylic acid], the half-maximal inhibitory concentration (IC50) is below 10 µM.

On to `O=C(Nc1scc(-c2cc3cccc(OCc4ccccc4)c3o2)c1C(=O)O)c1cc2ccccc2o1` [2-(benzofuran-2-carboxamido)-4-(7-(benzyloxy)benzofuran-2-yl)thiophene-3-carboxylic acid], for which the IC50 is below 10 µM.

For the molecule `N#Cc1cccc2cc(-c3csc(NC(=O)c4cc5ccccc5o4)c3C(=O)O)oc12` [2-(benzofuran-2-carboxamido)-4-(7-cyanobenzofuran-2-yl)thiophene-3-carboxylic acid], the IC50 is below 10 µM.

Consider `O=C(Nc1scc(-c2cc3cccc(O)c3o2)c1C(=O)O)c1cc2ccccc2o1` [2-(benzofuran-2-carboxamido)-4-(7-hydroxybenzofuran-2-yl)thiophene-3-carboxylic acid], for which the IC50 was below 10 µM.

On to `COc1cccc2cc(-c3csc(NC(=O)c4cc5ccccc5o4)c3C(=O)O)oc12` [2-(benzofuran-2-carboxamido)-4-(7-methoxybenzofuran-2-yl)thiophene-3-carboxylic acid], for which the IC50 was below 10 µM.

As to `O=C(Nc1scc(-c2cc3ccccc3o2)c1C(=O)O)c1cc2ccccc2o1` [2-(benzofuran-2-carboxamido)-4-(benzofuran-2-yl)thiophene-3-carboxylic acid], the IC50 was below 10 µM.

Consider `O=C(Nc1scc(-c2ccc3occc3c2)c1C(=O)O)c1cc2ccccc2o1` [2-(benzofuran-2-carboxamido)-4-(benzofuran-5-yl)thiophene-3-carboxylic acid], for which the IC50 is below 10 µM.

On to `Cc1ccc(-c2csc(NC(=O)c3ccc4occc4c3)c2C(=O)O)c(F)c1F` [2-(benzofuran-5-carboxamido)-4-(2,3-difluoro-4-methylphenyl)thiophene-3-carboxylic acid], for which the IC50 is below 10 µM.

(Values after patent publication US8394848B2, “Compounds that modulate intracellular calcium” (Calcimedica, Inc., priority 2008, dated 2013).)
